Assay results: patent publication US12364682B2, “Use of tegaserod in preparation of anti-tumor drug” (Qingdao Haiji Biomedicine Co., Ltd., priority 2019, dated 2025)
Structures can show the parent of a compound that is named as a salt.

What was measured:
STAT3 = experiment: STAT3-dependent luciferase reporter gene test; assay type: cell-based; conditions: Homo sapiens; SKA cells (A549 with STAT3-luciferase reporter gene), 24 h; read-out: IC50 of inhibitory effect on STAT3 (luciferase reporter)
Description: HeLa and SKA cells (A549 cells constructed with the STAT3-luciferase reporter gene) were cultivated in a DMEM medium, and DU145, A549, DLD1, H460, and MC38 were cultivated in an RPMI 1640 medium. For routine cultivation, 10% fetal bovine serum (FBS), 100 IU/ml penicillin, and […] streptomycin were added to a medium. All cells were cultivated at 37° C. and 5% CO2.
SKA cells were inoculated into a white 96-well plate at a density of 1×10^4/well, and cultivated overnight at 37° C. and 5% CO2. A drug to be tested was added at a concentration to be tested to act on the cells for 24 h. The luciferase activity was determined on a SpectraMax®L microplate reader using a luciferase kit (purchased from Promega®).

DLD1 colon cancer cells = experiment: Cell viability assay, DLD1; assay type: cell-based; conditions: Homo sapiens, DLD-1, 72 h, read-out: growth inhibition IC50
Description: (§1) Cells were inoculated into a 96-well plate at a density of 3,000 cells/well. After the cells were cultivated for 18 h, different concentrations of a drug to be tested were added to act on the cells. 72 h after the drug to be tested was added, 10 μl of resazurin (1 mg/ml) was added to each well, the plate was further incubated for 3 h, and then a fluorescence value at 595 nm (excitation wavelength at 544 nm) was determined on a SpectraMax®i3 multifunctional microplate reader (purchased from Molecular Device®)
(§2) After cells were treated with Tegaserod for 72 h, the cell viability was determined to reflect the inhibitory effect of the drug on cell growth.

lung cancer A549 cells = experiment: Cell viability assay, A549; assay type: cell-based; conditions: Homo sapiens, 72 h, read-out: growth inhibition IC50
Description: as §1, §2

[1] = tested on: prostate cancer DU145 cells; experiment: Cell viability assay, DU145; assay type: cell-based; conditions: Homo sapiens, DU-145, 72 h, read-out: growth inhibition IC50
Description: as §1, §2

STAT3 Tyr705 [2] = experiment: Western blotting of constitutive STAT3 activation in A549 cells; assay type: cell-based; conditions: constitutively activated STAT3, 2 h
Description: (§3) The cells were harvested and lysed with an RIPA buffer, a resulting lysate was subjected to sodium dodecyl sulfate-polyacrylamide gel electrophoresis (SDS-PAGE), and a resulting protein was transferred to a nitrocellulose (NC) membrane (purchased from GE Healthcare®). A primary antibody was added to bind the protein to be tested on the membrane, then a horseradish peroxidase (HRP)-conjugated secondary antibody (purchased from Absin) was added for incubation, and finally a formed immunocomplex was detected with an Immobilon™ Western chemiluminescent HRP substrate (Millipore®) and photographed with a Tanon® 5200 imaging system.
(§4) Different concentrations of Tegaserod were added to normally-cultured cells to act on the cells for 2 h, a cell protein lysate was collected for western blotting assay, and an activation status of STAT3 was observed through a phosphorylation status at an STAT3 Tyr705 site.

[3] = tested on: immune cells in MC38 transplanted tumors; experiment: FCM analysis of immune cells in MC38 tumors; assay type: in vivo, mice
Description: (§5) At the end of the experiment, the mice were sacrificed by C02, a proper amount of tumor tissue was collected and placed in a dissociation tube with a mouse tumor dissociation reagent (MC38 transplanted tumor) or human tumor dissociation reagent (DU145 transplanted tumor), and a tissue dissociator (Miltenyi) was used for dissociation. Separated single cells were subjected to RBC lysis and dead cell staining, obtained cells were incubated with a blocking solution at 4° C., a corresponding antibody was added, and analysis was conducted on a FACSAriaIII cell sorter.
(§6) Some parts in nude mice had acquired immune cell deficiency and an imperfect immune system, and thus the anti-tumor effect and immunomodulatory effect of Tegaserod were further tested in immune-sound mice.

JAK2 Tyr1007/1008 = target: T1, JAK2 Tyr1007/1008 (Homo sapiens, UniProt O60674); experiment: Western blotting of JAK2 phosphorylation in DU145 cells; assay type: cell-based; conditions: 7.5 μM, 2 h
T1 construct: endogenous in cells; host or cells: DU145
T1 sequence (O60674 whole entry): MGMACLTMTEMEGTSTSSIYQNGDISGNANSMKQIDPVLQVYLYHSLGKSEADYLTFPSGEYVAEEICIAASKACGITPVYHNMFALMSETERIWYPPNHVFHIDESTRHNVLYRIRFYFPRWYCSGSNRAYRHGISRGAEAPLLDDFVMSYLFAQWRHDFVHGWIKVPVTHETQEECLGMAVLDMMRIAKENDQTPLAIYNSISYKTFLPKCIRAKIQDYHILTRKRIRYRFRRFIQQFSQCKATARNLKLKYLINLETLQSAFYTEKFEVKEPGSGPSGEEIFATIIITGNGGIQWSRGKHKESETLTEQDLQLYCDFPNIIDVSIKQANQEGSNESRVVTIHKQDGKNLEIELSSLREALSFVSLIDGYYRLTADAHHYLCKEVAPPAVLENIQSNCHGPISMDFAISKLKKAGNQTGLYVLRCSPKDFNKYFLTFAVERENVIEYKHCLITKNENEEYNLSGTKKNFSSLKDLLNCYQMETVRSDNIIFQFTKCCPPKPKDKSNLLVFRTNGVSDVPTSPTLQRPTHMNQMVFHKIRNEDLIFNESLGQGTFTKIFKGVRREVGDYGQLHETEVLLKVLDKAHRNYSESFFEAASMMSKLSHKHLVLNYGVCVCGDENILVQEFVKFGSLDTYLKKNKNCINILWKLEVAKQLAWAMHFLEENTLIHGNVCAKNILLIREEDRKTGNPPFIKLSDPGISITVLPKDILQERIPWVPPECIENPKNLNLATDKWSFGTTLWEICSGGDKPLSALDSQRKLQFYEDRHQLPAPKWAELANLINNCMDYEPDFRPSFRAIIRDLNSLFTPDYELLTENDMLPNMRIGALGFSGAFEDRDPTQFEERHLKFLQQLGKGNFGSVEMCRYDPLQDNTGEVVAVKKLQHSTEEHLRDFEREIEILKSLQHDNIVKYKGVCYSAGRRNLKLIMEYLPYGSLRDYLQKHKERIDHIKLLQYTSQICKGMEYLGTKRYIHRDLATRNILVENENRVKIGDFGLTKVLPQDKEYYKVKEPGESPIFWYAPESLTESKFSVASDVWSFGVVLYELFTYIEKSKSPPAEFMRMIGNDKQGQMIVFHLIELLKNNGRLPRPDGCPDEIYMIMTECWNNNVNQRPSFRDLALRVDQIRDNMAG
Description: as §3
(§7) STAT3 is usually JAK-kinase-phosphorylated and activated by the autophosphorylated JAK kinase upstream thereof.

phosphorylated STAT3 = experiment: Immunohistochemistry of phosphorylated STAT3 in DU145 transplanted tumors; assay type: in vivo, nude mice; conditions: oral administration
Description: (§8) Paraffin sections were deparaffinized with xylene, washed with ethanol of various grades, subjected to antigen retrieval, blocked with a blocking solution in a 37° C. incubator, then treated with a primary antibody and a secondary antibody, stained with a DAB staining solution, treated with hematoxylin, a differentiation solution, an ammonia solution, ethanol of various grades, and xylene, and sealed with a neutral resin.
In addition, the human prostate cancer cell line DU145 with constitutive STAT3 activation was selected, and the effect of Tegaserod on the growth of transplanted tumors of the human prostate cancer cell line in nude mice was also tested.

[4] = tested on: cell proliferation marker Ki67; experiment: Immunohistochemistry of Ki67 in DU145 transplanted tumors; assay type: in vivo, nude mice; conditions: oral 1.25 mg/kg once every two days
Description: as §8

[5] = tested on: prostate cancer DU145 transplanted tumors; experiment: DU145 transplanted tumor nude mouse model; assay type: in vivo, nude mice
Description: (§9) Female NRMI nu/nu athymic nude mice (SPF grade, 6 weeks old, with a weight of 17 g to 20 g) were purchased from GemPharmatech®, and raised in a constant-temperature and constant-humidity environment according to standard requirements, where a 12 h light-dark cycle was adopted. The animal experiment was approved by the Laboratory Animal Committee of Ocean University of China and complied with the “Guide for Care and Use of Laboratory Animals” published by the National Institutes of Health (NIH Publication No. 85-23, revised in 1996).
(§10) Nude mice were subcutaneously injected with an A549 cell suspension (female mice) or a DU145 matrigel cell suspension (male mice). After palpable solid tumors were formed, constructed model mice were randomly divided into groups, each with 7 to 10 mice. Administration treatment was conducted according to the experimental grouping. Throughout the experiment, a body weight was measured regularly. A tumor volume was calculated as follows: tumor volume=0.5×length×width×width.

STAT3 (Y705) = experiment: Western blotting of IL-6-induced STAT3 activation in HeLa cells; assay type: cell-based; conditions: 2 h drug, then 5 ng/ml IL-6 for 10 min
Description: as §3
IL-6 was the main cytokine to activate STAT3 signaling. Hela cells were first treated with different concentrations of Tegaserod for 2 h, then stimulated with 5 ng/ml IL-6 for 10 min before harvested. Total protein was extracted, and the phosphorylation of STAT3 (Y705) was detected through western blotting.

[6] = tested on: NSCLC A549 transplanted tumors; experiment: A549 transplanted tumor nude mouse model; assay type: in vivo, nude mice
Description: as §9, §10

[7] = tested on: mouse stromal cells of DU145 transplanted tumors; experiment: Transcriptome sequencing of DU145 transplanted tumors; assay type: in vivo, nude mice; conditions: mouse-derived cells in DU145 transplanted tumors, mRNA sequencing
Description: An appropriate amount of tumor tissue was collected and quick-frozen with liquid nitrogen, and eukaryotic mRNA sequencing was conducted by Majorbio. Based on the Illumina® Novaseq 6000™ sequencing platform, all mRNAs transcribed from specific eukaryotic tissues or cells in a specified period were sequenced. In the sequencing experiment, the Illumina Truseq™ RNA sample prep kit method was used to build a library. Raw data were used for quality control, sequence alignment, transcript assembly, function annotation, and expression analysis.
In order to further explore the immunomodulatory effect of Tegaserod in an anti-tumor process, the transcriptome sequencing technology was used to conduct mRNA sequencing for DU145 transplanted tumors in nude mice, and sequencing results were aligned to the mouse reference genome to obtain the overall mRNA expression of mouse-derived cells in DU145 transplanted tumors in nude mice.

lung cancer H460 cells = experiment: Cell viability assay, H460; assay type: cell-based; conditions: Homo sapiens, NCI-H460, 72 h, read-out: growth inhibition IC50
Description: as §1, §2

TYK2 Tyr1054/1055 = target: T2, TYK2 Tyr1054/1055 (Homo sapiens, UniProt P29597); experiment: Western blotting of TYK2 phosphorylation in DU145 cells; assay type: cell-based; conditions: high concentration 15 μM, 2 h
T2 construct: endogenous in cells; host or cells: DU145
T2 sequence (P29597 whole entry): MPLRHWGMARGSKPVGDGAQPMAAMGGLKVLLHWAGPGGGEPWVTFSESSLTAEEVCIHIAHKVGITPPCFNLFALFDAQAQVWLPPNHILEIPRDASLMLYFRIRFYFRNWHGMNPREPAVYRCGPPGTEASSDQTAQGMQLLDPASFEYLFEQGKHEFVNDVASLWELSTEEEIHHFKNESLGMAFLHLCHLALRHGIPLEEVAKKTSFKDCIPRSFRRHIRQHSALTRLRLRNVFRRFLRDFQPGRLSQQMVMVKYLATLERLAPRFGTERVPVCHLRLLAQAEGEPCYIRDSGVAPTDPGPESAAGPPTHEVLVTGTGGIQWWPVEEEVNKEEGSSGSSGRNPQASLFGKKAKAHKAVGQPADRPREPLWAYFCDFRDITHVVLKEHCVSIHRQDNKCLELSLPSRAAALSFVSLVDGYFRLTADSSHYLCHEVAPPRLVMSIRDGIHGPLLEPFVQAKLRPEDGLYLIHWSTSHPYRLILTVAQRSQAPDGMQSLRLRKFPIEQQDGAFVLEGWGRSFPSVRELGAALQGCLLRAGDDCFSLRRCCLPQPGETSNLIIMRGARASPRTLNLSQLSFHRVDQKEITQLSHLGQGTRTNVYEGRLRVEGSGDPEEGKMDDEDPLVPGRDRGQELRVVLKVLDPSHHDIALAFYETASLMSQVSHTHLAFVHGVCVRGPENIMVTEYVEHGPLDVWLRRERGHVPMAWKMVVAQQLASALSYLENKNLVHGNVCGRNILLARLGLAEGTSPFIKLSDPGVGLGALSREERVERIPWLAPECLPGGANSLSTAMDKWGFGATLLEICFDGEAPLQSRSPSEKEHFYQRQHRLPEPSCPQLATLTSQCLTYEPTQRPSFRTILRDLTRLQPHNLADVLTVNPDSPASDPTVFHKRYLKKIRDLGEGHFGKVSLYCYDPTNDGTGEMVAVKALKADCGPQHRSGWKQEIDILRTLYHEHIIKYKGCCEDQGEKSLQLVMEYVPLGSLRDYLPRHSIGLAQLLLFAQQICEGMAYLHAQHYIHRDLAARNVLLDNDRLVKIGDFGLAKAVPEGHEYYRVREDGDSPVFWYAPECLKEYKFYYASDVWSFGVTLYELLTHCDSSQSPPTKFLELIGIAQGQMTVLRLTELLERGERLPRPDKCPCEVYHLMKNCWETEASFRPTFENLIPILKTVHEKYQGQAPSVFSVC
Description: as §3, §7

STAT3 Tyr705 [8] = experiment: Western blotting of constitutive STAT3 activation in DU145 cells; assay type: cell-based, human; conditions: constitutively activated STAT3, 2 h
Description: as §3, §4

[9] = tested on: CRC MC38 transplanted tumors; experiment: CRC MC38 syngeneic tumor model; assay type: in vivo; conditions: immune-sound mice
Excerpt: as §6

[10] = tested on: immune cells in DU145 transplanted tumors; experiment: FCM analysis of immune cells in DU145 transplanted tumors; assay type: in vivo; conditions: DU145 transplanted tumors in nude mice
Description: as §5
Furthermore, the composition and proportion of immune cells in DU145 transplanted tumors in nude mice were tested through FCM.

JAK1 Tyr1022/1023 = target: T3, JAK1 Tyr1022/1023 (Homo sapiens, UniProt P23458); experiment: Western blotting of JAK1 phosphorylation in DU145 cells; assay type: cell-based
T3 construct: endogenous in cells; host or cells: DU145
T3 sequence (P23458 whole entry): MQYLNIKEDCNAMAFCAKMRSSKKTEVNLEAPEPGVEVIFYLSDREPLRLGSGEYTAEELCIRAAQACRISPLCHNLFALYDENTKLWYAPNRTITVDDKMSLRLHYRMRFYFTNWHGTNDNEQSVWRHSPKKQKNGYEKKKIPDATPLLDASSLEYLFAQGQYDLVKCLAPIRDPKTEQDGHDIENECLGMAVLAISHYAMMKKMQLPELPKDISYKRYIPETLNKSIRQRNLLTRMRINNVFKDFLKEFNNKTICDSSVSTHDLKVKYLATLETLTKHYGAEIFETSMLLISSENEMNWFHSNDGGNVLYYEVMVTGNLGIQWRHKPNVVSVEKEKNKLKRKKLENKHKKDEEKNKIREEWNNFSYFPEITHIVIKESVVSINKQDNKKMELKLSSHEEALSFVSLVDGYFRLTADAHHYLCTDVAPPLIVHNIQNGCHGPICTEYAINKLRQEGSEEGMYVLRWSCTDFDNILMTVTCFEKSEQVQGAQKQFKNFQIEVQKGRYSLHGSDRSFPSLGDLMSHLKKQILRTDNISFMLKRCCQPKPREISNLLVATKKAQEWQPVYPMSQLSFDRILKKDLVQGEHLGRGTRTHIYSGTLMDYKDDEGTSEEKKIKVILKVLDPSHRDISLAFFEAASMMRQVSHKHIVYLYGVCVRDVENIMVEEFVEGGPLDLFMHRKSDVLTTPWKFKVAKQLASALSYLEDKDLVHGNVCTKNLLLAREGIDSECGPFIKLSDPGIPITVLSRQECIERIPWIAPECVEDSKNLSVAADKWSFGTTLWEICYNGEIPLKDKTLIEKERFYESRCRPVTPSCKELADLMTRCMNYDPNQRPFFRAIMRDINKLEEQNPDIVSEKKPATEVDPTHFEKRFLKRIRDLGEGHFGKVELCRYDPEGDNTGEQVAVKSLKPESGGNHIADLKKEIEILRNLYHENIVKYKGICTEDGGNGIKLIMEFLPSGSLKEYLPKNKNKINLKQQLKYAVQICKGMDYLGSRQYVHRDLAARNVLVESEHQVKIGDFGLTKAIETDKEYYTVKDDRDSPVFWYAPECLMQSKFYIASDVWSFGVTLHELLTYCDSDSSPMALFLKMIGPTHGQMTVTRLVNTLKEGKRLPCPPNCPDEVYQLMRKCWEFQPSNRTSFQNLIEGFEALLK
Description: as §3, §7

[11] = Body weight and toxicity observation in tumor-bearing mice; assay type: in vivo
Description: as §10

[12] = tested on: immune cells in peripheral blood; experiment: Blood cell analysis of peripheral blood; assay type: in vivo; conditions: tumor-bearing mice, after administration
Description: After the tumor-bearing mice were sacrificed by CO2, blood was collected from the heart and placed into an EDTA anticoagulation tube, and the blood cell component test was conducted using an IDEXX ProCyte Dx automatic blood cell analyzer.
In order to verify this hypothesis, the composition change of immune cells in peripheral blood after the administration of Tegaserod was first detected.

`[H]/N=C(/NCCCCC)N/N=C/c1c[nH]c2ccc(OC)cc12` [Tegaserod maleate] showed an IC50 (STAT3) of 5.06 µM.

Compound `CCCCCNC(=N)N/N=C/c1c[nH]c2ccc(OC)cc12` [Tegaserod, 2-[(5-methoxy-1H-indol-3-yl)methylene]-N-pentylcarbazide] has an IC50 (DLD1 colon cancer cells) of 8.7 µM, an IC50 (lung cancer A549 cells) of 5.7 µM and an IC50 [1] of 2.5 µM. For the same compound, the “inhibition of STAT3 activation (Tyr705 phosphorylation)” value (STAT3 Tyr705 [2]) was “could inhibit the activation of STAT3 in a dosage-dependent manner”, the “infiltration of immune cells (CD45+) inside tumors” value [3] was “promoted the infiltration of immune cells (CD45+) inside tumors” and the “inhibition of phosphorylation at JAK2 Tyr1007/1008” value (JAK2 Tyr1007/1008) was “could inhibit the phosphorylation”. For the same compound, the “phosphorylation level of STAT3 in tumors (immunohistochemistry)” value (phosphorylated STAT3) was “could effectively inhibit the phosphorylation level of STAT3”, the “tumor proliferation ability (Ki67 immunohistochemistry)” value [4] was “decreased proliferation ability” and the “tumor inhibition ability at reduced administration frequency” value ([5]; DU145 nude mice, oral, once every two days) was “exhibited a stronger tumor inhibition ability”. The “dependence of tumor inhibition rate on dosage” value ([5]; DU145 transplanted tumor nude mouse model) was “no dependence on a Tegaserod dosage”, the “growth of DU145 transplanted tumors” value ([5]; oral administration, nude mice) was “could effectively inhibit the growth of DU145 transplanted tumors in nude mice” and the “inhibition of IL-6-induced STAT3 activation (Y705 phosphorylation)” value (STAT3 (Y705)) was “inhibited the activation of STAT3 induced by IL-6 in a dosage-dependent manner”. For the same compound, the “anti-tumor effect relative to gefitinib” value ([6]; 5 mg/kg i.p. versus 100 mg/kg gefitinib p.o., A549 nude mice) was “comparable to that of 100 mg/kg gefitinib (p.o.)”, the “growth of A549 transplanted tumors” value ([6]; 5 mg/kg i.p., nude mice, versus control group) was “could effectively inhibit the growth of A549 tumor cells” and the “dependence of tumor inhibition rate on dosage” value ([6]; A549 transplanted tumor nude mouse model) was “no dependence on a Tegaserod dosage”. For the same compound, the “growth of A549 transplanted tumors (tumor weight and tumor volume)” value ([6]; oral administration, nude mice) was “could inhibit the growth of A549 transplanted tumors in nude mice”, the “genes of cytokine-cytokine receptor interaction and antigen processing and presentation (KEGG analysis)” value [7] was “significantly up-regulated” and the IC50 (lung cancer H460 cells) was 3.1 µM. The “inhibition of phosphorylation at TYK2 Tyr1054/1055” value (TYK2 Tyr1054/1055) was “could also inhibit the phosphorylation”, the “inhibition of STAT3 activation (Tyr705 phosphorylation)” value (STAT3 Tyr705 [8]) was “could inhibit the activation of STAT3 in a dosage-dependent manner” and the “growth of CRC MC38 transplanted tumors” value [9] was “could effectively inhibit the growth of CRC MC38 transplanted tumors”. For the same compound, the “proportion of immune cells (CD45+; CD11b+Ly6G+, CD11b+Ly6C+, CD335+) in tumors” value [10] was “could increase the proportion of immune cells (CD45+) in tumors”, the “inhibition of phosphorylation at JAK1 Tyr1022/1023” value (JAK1 Tyr1022/1023; 7.5 μM, 2 h) was “could inhibit the phosphorylation” and the “selectivity within the JAK kinase family” value (JAK1 Tyr1022/1023; JAK1 and JAK2 versus TYK2) was “higher affinity to JAK1 and JAK2 than to TYK2”. The “organ damage after anatomy” value ([11]; A549 nude mouse model, i.p. administration, experimental endpoint) was “no obvious organ damage was observed”, the body weight ([11]; A549 nude mouse model, i.p. administration, throughout the experiment) was “did not change significantly” and the body weight ([11]; A549 nude mouse model, oral administration) was “did not lose weight”. The “drug toxicity (body weight)” value ([11]; DU145 nude mouse model, low-dosage, low-frequency oral administration) was “no obvious drug toxicity”, the drug toxicity ([11]; DU145 nude mouse model, oral administration) was “without obvious drug toxicity” and the drug toxicity ([11]; MC38 model, immune-sound mice) was “without obvious drug toxicity”. The “total WBC count, neutrophils, lymphocytes, and platelets in the peripheral blood” value [12] was “could stimulate the increase”.

For `COc1cc2ncnc(Nc3ccc(F)c(Cl)c3)c2cc1OCCCN1CCOCC1` [gefitinib], the “proportion of immune cells (CD45+; CD11b+Ly6G+, CD11b+Ly6C+, CD335+) in tumors” value [10] was “also exhibited a similar immunomodulatory effect” and the “total WBC count, neutrophils, lymphocytes, and platelets in the peripheral blood” value [12] was “stimulate the increase”.
